Consider six compounds from patent US9289411B2, “Anti-HCV agent” (NATIONAL UNIVERSITY CORPORATION OKAYAMA UNIVERSITY, priority 2011, dated 2016).

Where “and” joins values, the source holds several entries; their conditions need not be identical. Identical values can stand only once.

The nature of series [1]: Cytotoxic effect, WST-1 cell proliferation assay in ORL8 cells. The following applies: human. The text has this:
(§1) Assay systems using OR6 cells (HCV-O strain), 1B-4R cells (HCV-1B-4 strain), and AH1R cells (HCV-AH1R strain) as HuH-7 cell-derived full-length HCV-RNA-replicating cells, and ORL8 cells (HCV-O strain), ORL11 cells (HCV-O strain), 1B-4RL cells (HCV-1B-4 strain), and KAH5RL cells (HCV-KAH5 strain) as Li23 cell-derived full-length HCV-RNA-replicating cells were used for the quantitative analysis of anti-HCV activity and evaluation of a cytotoxic effect in the present invention. The three cell lines, i.e., the 1B-4R cells, the 1B-4RL cells, and the KAH5RL cells have been disclosed in WO 2010/026965 A1. The AH1R cells may be produced with reference to Mori K et al., BBRC, 371:104-109, 2008 and WO 2010/026965 A1. In addition, all the HCV strains belong to genotype 1b.
(§2) In the measurement of the renilla luciferase activity and the measurement by the WST-1 method, experiments were performed in three wells independent of each other, and their means and standard deviation were calculated.
The cytotoxic effects of N-89 and N-251 were examined using ORL8 cells and the CC50 values were calculated. An experimental scale and schedule are the same as those in Example 1.
N-89 and N-251 were added so as to achieve concentrations of 5 μM, a 2-fold dilution series from 5 μM (2.5, 1.3, 0.63, 0.31, 0.16, and 0.08 μM), and 0. The WST-1 cell proliferation assay was performed 72 hours after the culture.
The cytotoxic effect of artemisinin was examined using OR6 and ORL8 cells and the CC50 values were calculated. An experimental scale and schedule are the same as those in Example 1. Artemisinin was added so as to achieve concentrations of 400 μM, a 2-fold dilution series from 400 μM (200, 100, 50, 25, and 13 μM), and 0. The WST-1 cell proliferation assay was performed 72 hours after the culture.
(In general: Tetrazolium assays rely on reduction of a dye to a coloured formazan, in cell work by metabolically active cells.)

The subject of series [2] is HCV-RNA replication in ORL8 cells. As to the kind of experiment: Influence of oxidizing agents KNO3 and NaClO4 on anti-HCV activity in ORL8 cells. The class given is cell-based, HCV genotype 1b. The following applies: 10 μM, 72 hours. As to the method: The effects of addition of KNO3 and NaClO4 on the anti-HCV activity of N-89 were examined using ORL8 cells.
N-89 and KNO3 or NaClO4 were simultaneously added so that the concentrations of N-89 and KNO3 or NaClO4 were set to 0.5 μM and 10 μM, respectively. The luciferase activity was measured 72 hours after the culture.

The test system is the same in series [3]. As to the kind of experiment: Effect of antioxidant vitamin E on anti-HCV activity in ORL8 cells (luciferase activity). The class given is cell-based, HCV genotype 1b. The following applies: for canceling of the anti-HCV activity by vitamin E: vitamin E 10 μM. The method, then:
The effect of addition of vitamin E on the anti-HCV activity of N-89 was examined using ORL8 cells. An experimental scale and schedule are the same as those in Example 1.
N-89 and vitamin E were simultaneously added so that the concentrations of N-89 and vitamin E were set to 0.5 μM and 10 μM, respectively. The luciferase activity was measured 72 hours after the culture.
The effect of addition of vitamin E on the anti-HCV activity of N-251 was examined using ORL8 cells. An experimental scale and schedule are the same as those in Example 1.
N-251 and vitamin E were simultaneously added so that the concentrations of N-251 and vitamin E were set to 0.5 μM and 10 μM, respectively. The luciferase activity was measured 72 hours after the culture.
The effect of addition of vitamin E on the anti-HCV activity of artemisinin was examined using ORL8 cells. An experimental scale and schedule are the same as those in Example 1.
Artemisinin and vitamin E were simultaneously added so that the concentrations of artemisinin and vitamin E were set to 100 μM and 10 μM, respectively. The luciferase activity was measured 72 hours after the culture.

In series [4] the test system is HCV-RNA replication in OR6 cells (HCV-O strain, HuH-7-derived). As to the kind of experiment: microbe, parasite or virus in culture.
Excerpt: as §1
(§3) As necessary, an increase or decrease in expression level of an HCV protein (core protein) was examined by a Western blot method.
as §2
OR6 cells, which had been cultured in general medium for subculture, were plated onto a 24-well plate (2×10^4 cells in 1 mL of medium for […] cell line per well) and cultured. After 24 hours, N-89 was added so as to achieve concentrations of 20 μM, a 2-fold dilution series from 20 μM (10, 5, 2.5, 1.3, 0.63, and 0.31 μM), and 0, or N-251 was added so as to achieve concentrations of 10 μM, a 2-fold dilution series from 10 μM (5, 2.5, 1.3, 0.63, 0.31, and 0.16 μM), and 0. The renilla luciferase activities were measured 72 hours after the culture. N-89 and N-251 were diluted with DMSO.
(§4) The anti-HCV activity of artemisinin was examined using OR6 cells and ORL8 cells and the EC50 values were calculated. An experimental scale and schedule are the same as those in Example 1.
(§5) Artemisinin was added so as to achieve concentrations of 100 μM, a 2-fold dilution series from 100 μM (50, 25, 13, 6.3, 3.1, and 1.6 μM), and 0. The luciferase activities were measured 72 hours after the culture.

Series [5] concerns HuH-7-derived HCV-replicon-replicating cells. The following applies: Paeshuyse J et al., BBRC 2006; cited from earlier work.
A short description of series [6]: Cytotoxic effect, WST-1 cell proliferation assay in OR6 cells. The following applies: human.
Excerpt: as §1, §2
After 24 hours, N-89 was added so as to achieve concentrations of 20 μM, a 2-fold dilution series from 20 μM (10, 5, 2.5, 1.3, 0.63, and 0.31 μM), and 0, or N-251 was added so as to achieve concentrations of 10 μM, a 2-fold dilution series from 10 μM (5, 2.5, 1.3, 0.63, 0.31, and 0.16 μM), and 0.
The cytotoxic effect of artemisinin was examined using OR6 and ORL8 cells and the CC50 values were calculated. […]

The subject of series [7] is HCV-RNA replication in ORL8 cells (HCV-O strain, Li23-derived). Put plainly: microbe, parasite or virus in culture.
Excerpt: as §1, §3, §2
The anti-HCV activities of N-89 and N-251 were examined using ORL8 cells and the EC50 values were calculated. An experimental scale and schedule are the same as those in Example 1.
N-89 and N-251 were added so as to achieve concentrations of 5 μM, a 2-fold dilution series from 5 μM (2.5, 1.3, 0.63, 0.31, 0.16, and 0.08 μM), and 0. The luciferase activities were measured 72 hours after the culture.
as §4, §5

As a reminder, the CC50 is the concentration at which the toxic effect on the cells reaches its halfway point. A high value points to lower toxicity to the cells. In series [1], `CC(C)n1c(/C=C/C(O)CC(O)CC(=O)O)c(-c2ccc(F)cc2)c2ccccc21` (centres unmarked) [FLV, Fluvastatin, reference compound] had a CC50 at 72 h of 21 µM.

As for `O=[N+]([O-])[O-].[K+]` [KNO3], in series [2], the “change in luciferase activity, oxidizing agent alone” value is given as “no change”.

For the compound `[Na+].[O-][Cl+3]([O-])([O-])[O-]` [NaClO4], the “change in luciferase activity, oxidizing agent alone” value in series [2] is on record as “no change”.

For orientation: EC50 means the midpoint of the concentration-response curve. A high value points to weaker potency. As for `C[C@@H]1CC[C@H]2[C@@H](C)C(=O)O[C@@H]3O[C@@]4(C)CC[C@@H]1[C@]32OO4` [artemisinin, reference compound], the “luciferase activity, artemisinin in combination with vitamin E” value in series [3] (100 μM + vitamin E 10 μM, 72 hours) came out at 53%. In series [3] (100 μM, 72 hours), the “luciferase activity, artemisinin alone” value worked out at 23%. Moreover, the “canceling of the anti-HCV activity by vitamin E” value in series [3] was “not canceled”. Also, the EC50 was 81 µM in series [4] (Hepatitis C virus, OR6, 72 h) and 23 µM in series [7] (Hepatitis C virus, ORL8, 72 h). For the same compound, in series [4] (OR6 and ORL8 cells), the “anti-HCV activity (judgement)” value is on record as “very weak anti-HCV activity”. In addition, the “SI (CC50/EC50)” value in series [4] (OR6 cells) is recorded as 5; in series [7] (ORL8 cells) it was 16. Besides, the 50% cytotoxic concentration (CC50) at 72 h in series [1] was determined as 368 µM; in series [6], 380 µM. Further, in series [5], the anti-HCV activity entry is reported as “weak”.

Turning to IFN-α, the “canceling of the anti-HCV activity by vitamin E” value in series [3] was “slightly found”.

Turning to vitamin E [reference compound], the “luciferase activity, vitamin E alone” value in series [3] (vitamin E 10 μM alone, 72 hours) is 217% and 194%. For the same compound, in series [3] (vitamin E 10 μM alone, 72 hours (Comparative Example 2)), the “increase of luciferase activity, vitamin E alone” value is listed as “about 3 fold”.
